Laboratory results as given in US20130158362A1 (INFACARE PHARMACEUTICAL CORPORATION, priority 2011, published 2013).

System: total serum bilirubin (TSB)
Assay: Phase 2b trial: total serum bilirubin (TSB), adjusted and unadjusted, change from baseline
Type: in vivo, human
Set-up: total serum bilirubin / total serum bilirubin, Delta (change from baseline) / Change from baseline of total serum bilirubin: unit not given here
Details: for total serum bilirubin / total serum bilirubin, Delta (change from baseline): 48 hours, preliminary data; for change from baseline in adjusted TSB, LS mean difference versus placebo, MMRM / change from baseline in adjusted TSB, LS means (SEM), MMRM: observed case
Description: Three cohorts of subjects were recruited. This clinical study was designed to evaluate safety and efficacy parameters in each cohort.
Scheduled assessments (including TSB) occurred before treatment and at 0.75 and 2 hours (or 1.5 and 3 hours, depending on PK blood sampling assignment); 6, 12, 24, 48, and 72 hours; and 14 and 30 (except TSB) days after treatment or early termination.
The primary efficacy endpoint was the change in adjusted TSB from baseline to 48 hours after treatment. The adjusted TSB was a calculation of the percentage variance of the TSB level from the age specific threshold for PT initiation per the AAP Guidelines, i.e., an indication of the distance below the PT threshold by time.
The Secondary Efficacy Endpoints were the change from baseline in unadjusted TSB at 48 hours after treatment, change from baseline in adjusted and unadjusted TSB at various other time points after treatment, percent change from baseline in unadjusted TSB, proportion of subjects who require PT/exchange transfusion (ET), time to PT/ET, duration of PT and time to hospital discharge.
Intent-to-treat population (ITT): Defined as all subjects who were randomly assigned treatment in the clinical study, had received IMP, and had at least 1 post baseline TSB measurement during the first 48 hours after treatment. Subjects were summarized based on randomized treatment.
Analysis of Efficacy Parameters: The primary efficacy analysis applied the analysis of covariance (ANCOVA) method to determine if there was a significant difference between treatment groups in change in adjusted TSB levels from baseline to 48 hours post baseline after controlling for the effects of gestational age and adjusted baseline TSB levels. If assumptions of ANCOVA appeared to be violated, a Wilcoxon rank-sum test could be performed instead. Time-to-event variables were analyzed using the Kaplan-Meier method, and Kaplan-Meier survival curves were presented.

[1] = 1.5 mg/kg IM, 6 h, ITT, LOCF, ANCOVA
[2] = 1.5 mg/kg IM, 12 h, ITT, LOCF, ANCOVA
[3] = 1.5 mg/kg IM, 24 h, ITT, LOCF, ANCOVA
[4] = 1.5 mg/kg IM, 48 h/early termination, ITT, LOCF
[5] = 1.5 mg/kg IM, 48 h, ITT, LOCF, ANCOVA
[6] = 1.5 mg/kg IM, 72 h, ITT, LOCF, ANCOVA
[7] = 1.5 mg/kg IM, 14 days/early termination, ITT, LOCF
[8] = 1.5 mg/kg IM, 14 days/early termination, ITT, LOCF, ANCOVA
[9] = 1.5 mg/kg versus the placebo group, 48 Hours/Early termination, PP Population, ANCOVA
[10] = 1.5 mg/kg, 48 Hours/Early termination, PP Population, LOCF
[11] = 1.5 mg/kg, 6 hrs, unadjusted TSB, ITT Population

tin IV mesoporphyrin IX dichloride [Stannsoporfin]
total serum bilirubin (1.5 mg/kg IM (N = 10), treated per protocol): 10.96 ± 1.8
adjusted TSB, Mean (SD) (1.5 mg/kg IM, 6 h, ITT, LOCF): −17.77 (13.326) %
change from baseline in adjusted TSB, Mean (SD) (1.5 mg/kg IM, 6 h, ITT, LOCF): 2.47 (7.928) %
change from baseline in adjusted TSB, Median (1.5 mg/kg IM, 6 h, ITT, LOCF): 2.80%
change from baseline in unadjusted TSB, Mean (SD) (1.5 mg/kg IM, 6 h, ITT, LOCF): 1.50 (0.861) mg/dL
change from baseline in unadjusted TSB, Median (1.5 mg/kg IM, 6 h, ITT, LOCF): 1.50 mg/dL
unadjusted TSB, Mean (SD) (1.5 mg/kg IM, 6 h, ITT, LOCF): 9.09 (2.175) mg/dL
unadjusted TSB, Median (1.5 mg/kg IM, 6 h, ITT, LOCF): 9.60 mg/dL
change from baseline in adjusted TSB, LS mean (SEM) [1]: 2.72 (2.053) %
change from baseline in adjusted TSB, LS mean difference versus placebo [1]: −1.67%
change from baseline in unadjusted TSB, LS Mean (SEM) [1]: 1.38 (0.242) mg/dL
change from baseline in unadjusted TSB, LS Mean Difference versus placebo [1]: -0.21 mg/dL
change from baseline in adjusted TSB, LS mean difference versus placebo, MMRM (1.5 mg/kg IM, 6 h, ITT): −1.44%
change from baseline in adjusted TSB, LS means (SEM), MMRM (1.5 mg/kg IM, 6 h, ITT): 2.94 (2.098) %
adjusted TSB, Mean (SD) (1.5 mg/kg IM, 12 h, ITT, LOCF): −17.41 (17.294) %
change from baseline in adjusted TSB, Mean (SD) (1.5 mg/kg IM, 12 h, ITT, LOCF): 2.83 (12.949) %
change from baseline in adjusted TSB, Median (1.5 mg/kg IM, 12 h, ITT, LOCF): 5.70%
change from baseline in unadjusted TSB, Mean (SD) (1.5 mg/kg IM, 12 h, ITT, LOCF): 2.22 (1.624) mg/dL
change from baseline in unadjusted TSB, Median (1.5 mg/kg IM, 12 h, ITT, LOCF): 2.50 mg/dL
unadjusted TSB, Mean (SD) (1.5 mg/kg IM, 12 h, ITT, LOCF): 9.82 (2.599) mg/dL
unadjusted TSB, Median (1.5 mg/kg IM, 12 h, ITT, LOCF): 10.20 mg/dL
change from baseline in adjusted TSB, LS mean (SEM) [2]: 4.54 (3.015) %
change from baseline in adjusted TSB, LS mean difference versus placebo [2]: −2.59%
change from baseline in unadjusted TSB, LS Mean (SEM) [2]: 2.21 (0.374) mg/dL
change from baseline in unadjusted TSB, LS Mean Difference versus placebo [2]: -0.39 mg/dL
change from baseline in adjusted TSB, LS mean difference versus placebo, MMRM (1.5 mg/kg IM, 12 h, ITT): −2.67%
change from baseline in adjusted TSB, LS means (SEM), MMRM (1.5 mg/kg IM, 12 h, ITT): 3.29 (2.731) %
adjusted TSB, Mean (SD) (1.5 mg/kg IM, 24 h, ITT, LOCF): −24.44 (18.927) %
change from baseline in adjusted TSB, Mean (SD) (1.5 mg/kg IM, 24 h, ITT, LOCF): −4.20 (16.064) %
change from baseline in adjusted TSB, Median (1.5 mg/kg IM, 24 h, ITT, LOCF): −4.30%
change from baseline in unadjusted TSB, Mean (SD) (1.5 mg/kg IM, 24 h, ITT, LOCF): 2.24 (2.084) mg/dL
change from baseline in unadjusted TSB, Median (1.5 mg/kg IM, 24 h, ITT, LOCF): 2.70 mg/dL
unadjusted TSB, Mean (SD) (1.5 mg/kg IM, 24 h, ITT, LOCF): 9.84 (2.656) mg/dL
unadjusted TSB, Median (1.5 mg/kg IM, 24 h, ITT, LOCF): 10.80 mg/dL
change from baseline in adjusted TSB, LS mean (SEM) [3]: −7.62 (4.320) %
change from baseline in adjusted TSB, LS mean difference versus placebo [3]: −7.53%
change from baseline in unadjusted TSB, LS Mean (SEM) [3]: 1.98 (0.549) mg/dL
change from baseline in unadjusted TSB, LS Mean Difference versus placebo [3]: -0.76 mg/dL
change from baseline in adjusted TSB, LS mean difference versus placebo, MMRM (1.5 mg/kg IM, 24 h, ITT): −3.77%
change from baseline in adjusted TSB, LS means (SEM), MMRM (1.5 mg/kg IM, 24 h, ITT): −5.33 (3.948) %
adjusted TSB, Mean (SD) [4]: −35.09 (19.198) %
adjusted TSB, Median [4]: −27.10%
change from baseline in adjusted TSB, Mean (SD) (1.5 mg/kg IM, 48 h, ITT, LOCF): −14.85 (15.442) %
change from baseline in adjusted TSB, Median (1.5 mg/kg IM, 48 h, ITT, LOCF): −12.30%
change from baseline in unadjusted TSB, Mean (SD) (1.5 mg/kg IM, 48 h, ITT, LOCF): 2.32 (2.560) mg/dL
change from baseline in unadjusted TSB, Median (1.5 mg/kg IM, 48 h, ITT, LOCF): 2.70 mg/dL
unadjusted TSB, Mean (SD) (1.5 mg/kg IM, 48 h, ITT, LOCF): 9.91 (3.116) mg/dL
unadjusted TSB, Median (1.5 mg/kg IM, 48 h, ITT, LOCF): 10.90 mg/dL
change from baseline in adjusted TSB, LS mean (SEM) (primary endpoint) [5]: −15.03 (5.273) %
change from baseline in adjusted TSB, LS mean difference versus placebo [5]: −13.45%
change from baseline in unadjusted TSB, LS Mean (SEM) [5]: 2.43 (0.842) mg/dL
change from baseline in unadjusted TSB, LS Mean Difference versus placebo [5]: -1.81 mg/dL
change from baseline in adjusted TSB, LS mean (SEM) (primary endpoint) (1.5 mg/kg IM, 48 h, ITT, LOCF, ANCOVA, listed as stannsoporfin): 15.0%
change from baseline in adjusted TSB, LS mean difference versus placebo, MMRM (1.5 mg/kg IM, 48 h, ITT): −8.26%
change from baseline in adjusted TSB, LS means (SEM), MMRM (1.5 mg/kg IM, 48 h, ITT): −14.94 (5.019) %
total serum bilirubin (1.5 mg/kg IM, intent to treat): 9.91 ± 3.1
total serum bilirubin, Delta (change from baseline) (1.5 mg/kg IM, intent to treat): 2.32 ± 2.5
total serum bilirubin, Delta (change from baseline) (1.5 mg/kg IM, treated per protocol): 3.44 ± 1.5
adjusted TSB, Mean (SD) (1.5 mg/kg IM, 72 h/early termination, ITT, LOCF): −44.82 (19.254) %
change from baseline in adjusted TSB, Mean (SD) (1.5 mg/kg IM, 72 h, ITT, LOCF): −24.58 (15.743) %
change from baseline in adjusted TSB, Median (1.5 mg/kg IM, 72 h, ITT, LOCF): −22.10%
change from baseline in unadjusted TSB, Mean (SD) (1.5 mg/kg IM, 72 h, ITT, LOCF): 1.76 (2.790) mg/dL
change from baseline in unadjusted TSB, Median (1.5 mg/kg IM, 72 h, ITT, LOCF): 2.40 mg/dL
unadjusted TSB, Mean (SD) (1.5 mg/kg IM, 72 h, ITT, LOCF): 9.35 (3.409) mg/dL
unadjusted TSB, Median (1.5 mg/kg IM, 72 h, ITT, LOCF): 10.60 mg/dL
change from baseline in adjusted TSB, LS mean (SEM) [6]: −21.94 (6.232) %
change from baseline in adjusted TSB, LS mean difference versus placebo [6]: −17.19%
change from baseline in unadjusted TSB, LS Mean (SEM) [6]: 2.43 (1.077) mg/dL
change from baseline in unadjusted TSB, LS Mean Difference versus placebo [6]: -2.52 mg/dL
change from baseline in unadjusted TSB, Mean (SD) [7]: −4.08 (2.322) mg/dL
change from baseline in unadjusted TSB, Median [7]: -4.00 mg/dL
unadjusted TSB, Mean (SD) [7]: 3.52 (2.751) mg/dL
unadjusted TSB, Median [7]: 2.80 mg/dL
change from baseline in unadjusted TSB, LS Mean (SEM) [8]: −4.04 (1.258) mg/dL
change from baseline in unadjusted TSB, LS Mean Difference versus placebo [8]: -1.74 mg/dL
48 Hours/Early termination change from baseline in unadjusted TSB, LS mean difference [9]: -0.97 mg/dL
P-value of LS mean difference, change from baseline in unadjusted TSB [9]: 0.338
48 Hours/Early termination change from baseline in unadjusted TSB, Max [10]: 5.2 mg/dL
48 Hours/Early termination change from baseline in unadjusted TSB, Mean (SD) [10]: 3.44 (1.458) mg/dL
48 Hours/Early termination change from baseline in unadjusted TSB, Median [10]: 3.40 mg/dL
48 Hours/Early termination change from baseline in unadjusted TSB, Min [10]: 0.7 mg/dL
48 Hours/Early termination unadjusted TSB, Max [10]: 12.8 mg/dL
48 Hours/Early termination unadjusted TSB, Mean (SD) [10]: 10.96 (1.842) mg/dL
48 Hours/Early termination unadjusted TSB, Median [10]: 11.35 mg/dL
48 Hours/Early termination unadjusted TSB, Min [10]: 6.8 mg/dL
48 Hours/Early termination change from baseline in unadjusted TSB, LS mean (SEM) (1.5 mg/kg, 48 Hours/Early termination, PP Population, LOCF, ANCOVA): 2.96 (0.868) mg/dL
6 hrs Percent Change from Baseline in TSB, Max [11]: 42.0%
6 hrs Percent Change from Baseline in TSB, Mean (SD) [11]: 20.13 (12.268) %
6 hrs Percent Change from Baseline in TSB, Min [11]: −1.7%
6 hrs TSB, Max [11]: 14.1 mg/dL
